Where “and” joins values, the source holds several entries; their conditions need not be identical. Identical values can stand only once. Toxic doses and inconclusive results are not listed. The calls were made as follows: active = survival T/C of 150% or more; inactive = T/C below 125% in these data.
Test system: P388 leukemia ip, CD2F1 mice, survival T/C
Test: NCI In Vivo Anticancer Drug Screen. Data for tumor model P388 Leukemia (intraperitoneal) in CD2F1 (CDF1) mice
Conditions: endpoint: median survival time, higher = longer survival
Method in brief: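 Mice carrying the transplanted tumor received test compound or vehicle. Survival was recorded in each group, and the value is the treated-group measurement divided by that of the vehicle-treated control group.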

[1] = dose: 50.0 mg/kg/injection, schedule: Q01DX009 (ip), vehicle: saline
[2] = dose: 100.0 mg/kg/injection, schedule: Q01DX009 (ip), vehicle: saline
[3] = dose: 200.0 mg/kg/injection, schedule: Q01DX009 (ip), vehicle: saline
[4] = dose: 60.0 mg/kg/injection, schedule: Q01DX005 (ip), vehicle: saline with Tween-80
[5] = dose: 120.0 mg/kg/injection, schedule: Q01DX005 (ip), vehicle: saline with Tween-80
[6] = dose: 240.0 mg/kg/injection, schedule: Q01DX005 (ip), vehicle: saline with Tween-80
[7] = dose: 50.0 mg/kg/injection, schedule: Q01DX005 (ip), vehicle: Klucel (hydroxypropylcellulose) (HPC)
[8] = dose: 100.0 mg/kg/injection, schedule: Q01DX005 (ip), vehicle: Klucel (hydroxypropylcellulose) (HPC)
[9] = dose: 200.0 mg/kg/injection, schedule: Q01DX005 (ip), vehicle: Klucel (hydroxypropylcellulose) (HPC)
[10] = dose: 25.0 mg/kg/injection, schedule: Q01DX009 (ip), vehicle: Klucel (hydroxypropylcellulose) (HPC)
[11] = dose: 50.0 mg/kg/injection, schedule: Q01DX009 (ip), vehicle: Klucel (hydroxypropylcellulose) (HPC)
[12] = dose: 100.0 mg/kg/injection, schedule: Q01DX009 (ip), vehicle: Klucel (hydroxypropylcellulose) (HPC)
[13] = dose: 200.0 mg/kg/injection, schedule: Q01DX009 (ip), vehicle: Klucel (hydroxypropylcellulose) (HPC)
[14] = dose: 50.0 mg/kg/injection, schedule: Q01DX005 (ip), vehicle: saline with Tween-80
[15] = dose: 100.0 mg/kg/injection, schedule: Q01DX005 (ip), vehicle: saline with Tween-80
[16] = dose: 200.0 mg/kg/injection, schedule: Q01DX005 (ip), vehicle: saline with Tween-80
[17] = dose: 100.0 mg/kg/injection, schedule: Q01DX009 (ip), vehicle: saline with Tween-80
[18] = dose: 200.0 mg/kg/injection, schedule: Q01DX009 (ip), vehicle: saline with Tween-80
[19] = dose: 400.0 mg/kg/injection, schedule: Q01DX009 (ip), vehicle: saline with Tween-80
[20] = dose: 60.0 mg/kg/injection, schedule: Q01DX005 (ip), vehicle: Klucel (hydroxypropylcellulose) (HPC)
[21] = dose: 120.0 mg/kg/injection, schedule: Q01DX005 (ip), vehicle: Klucel (hydroxypropylcellulose) (HPC)
[22] = dose: 240.0 mg/kg/injection, schedule: Q01DX005 (ip), vehicle: Klucel (hydroxypropylcellulose) (HPC)
[23] = dose: 100.0 mg/kg/injection, schedule: Q04DX002 (ip), vehicle: saline with Tween-80
[24] = dose: 200.0 mg/kg/injection, schedule: Q04DX002 (ip), vehicle: saline with Tween-80
[25] = dose: 100.0 mg/kg/injection, schedule: Q04DX003 (ip), vehicle: saline
[26] = dose: 200.0 mg/kg/injection, schedule: Q04DX003 (ip), vehicle: saline
[27] = dose: 50.0 mg/kg/injection, schedule: Q01DX009 (ip), vehicle: saline with Tween-80

Measured: T/C

O=c1[nH]c2ccccc2n1CCCN1CCC(n2c(=O)[nH]c3cc(Cl)ccc32)CC1
inactive: [1] 90 % of control | [2] 91 % of control | [3] 88 % of control

c1ccc(Cc2[nH]nc(-c3n[nH]c(Cc4ccccc4)c3-c3ccccc3)c2-c2ccccc2)cc1
inactive: [4] 101 % of control | [5] 103 % of control | [6] 102 % of control

Cc1ccc2nc(CC(=O)c3ccccc3)c(CC(=O)c3ccccc3)nc2c1
inactive: [4] 93 % of control | [5] 94 % of control | [6] 96 % of control

CNC(=O)c1ccc(OC)cc1C1(O)c2ccccc2CCc2ccccc21
inactive: [7] 92 % of control | [8] 92 % of control | [9] 89 % of control

c1ccc2c(c1)Cc1cc3ccccc3nc1-2
inactive: dose: 25.0 mg/kg/injection, schedule: Q01DX005 (ip), vehicle: Klucel (hydroxypropylcellulose) (HPC) 94 % of control | [10] 94 % of control | [7] 100 % of control | [11] 91 % of control | [8] 100 % of control | [12] 106 % of control | [9] 97 % of control | [13] 100 % of control

CC1=CC(=N/Br)/C=CC/1=N/Br
inactive: [14] 108 % of control | [15] 100 % of control | [16] 99 % of control

CCSCC1C(=O)C23C(O)C1CCC2C12COC3(O)C(O)C1C(C)(C)CCC2O (centres undefined)
inactive: dose: 22.5 mg/kg/injection, schedule: Q01DX009 (ip), vehicle: saline with Tween-80 108 % of control | dose: 45.0 mg/kg/injection, schedule: Q01DX009 (ip), vehicle: saline with Tween-80 112 % of control | dose: 90.0 mg/kg/injection, schedule: Q01DX009 (ip), vehicle: saline with Tween-80 94 % of control

OC1(c2ccccc2)c2ccc(Br)cc2-c2cc(Br)ccc21
inactive: [17] 101 % of control | [18] 104 % of control | [19] 100 % of control

Cc1nc2n(c1C(N)=O)CCS2
inactive: dose: 50.0 mg/kg/injection, schedule: Q01DX001 (ip), vehicle: Klucel (hydroxypropylcellulose) (HPC) 101 % of control | [20] 96 % of control | dose: 100.0 mg/kg/injection, schedule: Q01DX001 (ip), vehicle: Klucel (hydroxypropylcellulose) (HPC) 106 % of control | dose: 100.0 mg/kg/injection, schedule: Q04DX002 (ip), vehicle: Klucel (hydroxypropylcellulose) (HPC) 102 % of control | [21] 98 % of control | dose: 200.0 mg/kg/injection, schedule: Q01DX001 (ip), vehicle: Klucel (hydroxypropylcellulose) (HPC) 99 % of control | dose: 200.0 mg/kg/injection, schedule: Q04DX002 (ip), vehicle: Klucel (hydroxypropylcellulose) (HPC) 104 % of control | [22] 94 % of control

O=C(O)CCC(=O)C1=CSC(=C2SC=CS2)S1
inactive: dose: 60.0 mg/kg/injection, schedule: Q01DX005 (ip), vehicle: Klucel + Tween-80 106 % of control

Nc1nc(N)c2[nH]c(N=Nc3ccc(N(CCO)CCO)cc3)nc2n1
inactive: [14] 106 % of control | [15] 106 % of control | [16] 108 % of control

CC1(N2CCCCC2)C(=O)NC(=O)N(C2CCCCC2)C1=O (centres undefined)
inactive: [20] 88 % of control | [21] 95 % of control | [22] 89 % of control

CCCCCCCCCCCCCCCC[N+]1(CC)CCOCC1
inactive: dose: 1.56 mg/kg/injection, schedule: Q01DX009 (ip), vehicle: saline 105 % of control and 100 % of control | dose: 3.12 mg/kg/injection, schedule: Q01DX009 (ip), vehicle: saline 99 % of control | dose: 12.5 mg/kg/injection, schedule: Q01DX009 (ip), vehicle: saline 115 % of control and 105 % of control

O=c1c2ccccc2nc(/C=N/NC(=S)Nc2ccc(Cl)cc2)n1-c1ccc(Br)cc1
inactive: [23] 96 % of control | [24] 88 % of control

CC1=C(c2cc3ccccc3c3ccccc23)CCCC1
inactive: [17] 104 % of control | [18] 98 % of control | [19] 100 % of control

O=C1c2ccccc2C(=O)c2c(NCCO)ccc(NCCO)c21
inactive: dose: 25.0 mg/kg/injection, schedule: Q04DX002 (ip), vehicle: saline with Tween-80 96 % of control | dose: 50.0 mg/kg/injection, schedule: Q04DX002 (ip), vehicle: saline with Tween-80 91 % of control | [23] 95 % of control | [24] 90 % of control

FC(F)(F)c1ccccc1N=Cc1cccs1
inactive: [1] 113 % of control | [2] 103 % of control | [3] 104 % of control

COC(=O)/C=C\C(=O)O
inactive: dose: 50.0 mg/kg/injection, schedule: Q04DX003 (ip), vehicle: saline 100 % of control | [25] 110 % of control | [26] 120 % of control

CCC(O)CN(C)Cc1cc2c(c3ccccc13)CCCC2 (centres undefined)
inactive: [1] 106 % of control | [2] 108 % of control

CN(C)N1C(=O)c2c(Cl)c(Cl)c(Cl)c(Cl)c2C1=O
inactive: [14] 94 % of control | [15] 89 % of control

NCP(=O)(CN)CN
inactive: [11] 99 % of control | [12] 100 % of control | [13] 100 % of control

Cc1nnc2c([N+](=O)[O-])c(N)c(Cl)nn12
inactive: dose: 7.5 mg/kg/injection, schedule: Q01DX005 (ip), vehicle: saline with Tween-80 118 % of control | dose: 15.0 mg/kg/injection, schedule: Q01DX005 (ip), vehicle: saline with Tween-80 113 % of control

Cc1cccc(Cl)c1NC(=O)NCCCN1CCOCC1
inactive: [4] 102 % of control | [5] 100 % of control | [6] 112 % of control

CCOC1(OCC)C(=O)N(c2ccc(Cl)c(Cl)c2)C(=O)N1c1ccc(Cl)c(Cl)c1
inactive: [25] 95 % of control | [26] 92 % of control | dose: 400.0 mg/kg/injection, schedule: Q04DX003 (ip), vehicle: saline 89 % of control

O=C(CC(=O)C(F)(F)F)c1ccc(-c2ccccc2)cc1
inactive: dose: 25.0 mg/kg/injection, schedule: Q01DX009 (ip), vehicle: saline with Tween-80 110 % of control | [27] 116 % of control | [17] 111 % of control

Cc1ccc(CNc2ccc([N+](=O)[O-])cc2)cc1
inactive: dose: 50.0 mg/kg/injection, schedule: Q04DX003 (ip), vehicle: saline with Tween-80 100 % of control | dose: 100.0 mg/kg/injection, schedule: Q04DX003 (ip), vehicle: saline with Tween-80 100 % of control | dose: 200.0 mg/kg/injection, schedule: Q04DX003 (ip), vehicle: saline with Tween-80 95 % of control

Oc1oc(-c2ccccc2)nc1/C=C1/C(Cl)=Nc2ccccc21
inactive: dose: 100.0 mg/kg/injection, schedule: Q01DX001 (ip), vehicle: saline with Tween-80 99 % of control | dose: 200.0 mg/kg/injection, schedule: Q01DX001 (ip), vehicle: saline with Tween-80 99 % of control | dose: 400.0 mg/kg/injection, schedule: Q01DX001 (ip), vehicle: saline with Tween-80 100 % of control

O=C(NC1c2ccccc2Oc2ccccc21)c1ccc([N+](=O)[O-])cc1
inactive: [14] 102 % of control | [15] 93 % of control | [16] 91 % of control

CCc1cccc(C(C)C)c1NC1=C([n+]2ccc(C)cc2)C(=O)c2ccccc2C1=O
inactive: [4] 117 % of control | [5] 106 % of control | [6] 119 % of control

CC(=O)C(C#N)c1ccccn1 (centres undefined)
inactive: [27] 106 % of control | [17] 105 % of control | [18] 100 % of control

CSC(=N/O)/C(=N\O)SC
inactive: dose: 12.5 mg/kg/injection, schedule: Q01DX009 (ip), vehicle: Klucel (hydroxypropylcellulose) (HPC) 107 % of control | [10] 99 % of control | [11] 100 % of control and 102 % of control | [13] 89 % of control
